From patent US10342777B2, “Caffeoylquinic acid-rich extract and preparation as well as use thereof” (Macau University of Science and Technology, priority 2015, dated 2019)

How the values were obtained:
JNK = assay: Western blot of phospho-JNK in left ventricular tissue after I/R; type: in vivo, rat; conditions: 5 mg/kg before reperfusion
[1] = system: myocardial I/R injury in rat heart; assay: ECG (lead II) ST-segment depression and heart rate 24 h after I/R; type: in vivo; conditions: 5 mg/kg; 24 h reperfusion
Procedure: An ischemia reperfusion injury was produced in rat heart based on Buerke's description with our modifications (Buerke et al., Proc Natl Acad Sci USA, 1995, 92:8031-8035). Sixty rats were randomly divided into six groups (n=10 per group): (I) Sham group (given saline vehicle without I/R); (II) I/R group with saline alone; (Ill) I/R group with 10 mg/kg of the caffeoylquinic acid-rich extract of example 1; (IV) I/R group with 20 mg/kg of the caffeoylquinic acid-rich extract of example 1; (V) I/R group with 40 mg/kg of the caffeoylquinic acid-rich extract of example 1; […] The vehicle or drugs were administered 1 min before reperfusion via single bolus tail vein injection. […] Using a PowerLab (ADInstruments Pty Ltd., Castle Hill, Australia), mean aortic pressure (MAP) was recorded from the Millar catheter. Electrocardiogram (ECG) in lead II was also recorded through the needle electrodes attached to the limbs. The heart rate and ST-segment elevation were calculated off-line. […] Electrocardiogram (ECG) in lead II was recorded through the needle electrodes attached to the limbs continuously for 15 min with an electrocardiograph (ASB240U, […], China). The heart rate and ST-segment depression were calculated off-line. […] The amplitude of ST-segment and heart rate were recorded and used as the index of ischemic electrocardiograph changes. […]

[2] = system: Lactate dehydrogenase (LDH); assay: Serum LDH activity 24 h after I/R (commercial kit); type: in vivo, rat; conditions: 5 mg/kg, P<0.01
Procedure: (§1) An ischemia reperfusion injury was produced in rat heart based on Buerke's description with our modifications (Buerke et al., Proc Natl Acad Sci USA, 1995, 92:8031-8035). Sixty rats were randomly divided into six groups (n=10 per group): (I) Sham group (given saline vehicle without I/R); (II) I/R group with saline alone; (Ill) I/R group with 10 mg/kg of the caffeoylquinic acid-rich extract of example 1; (IV) I/R group with 20 mg/kg of the caffeoylquinic acid-rich extract of example 1; (V) I/R group with 40 mg/kg of the caffeoylquinic acid-rich extract of example 1; […] The vehicle or drugs were administered 1 min before reperfusion via single bolus tail vein injection. Rats were anesthetized with pentobarbital sodium (70 mg/kg body weight) by an i.p. injection of a mixture of 20% Dorminal (1 ml contains 200 mg pentobarbital sodium, Alfasan) and sterile saline at a ratio of 1:3 (VN). Using a PowerLab (ADInstruments Pty Ltd., Castle Hill, Australia), mean aortic pressure (MAP) was recorded from the Millar catheter. Electrocardiogram (ECG) in lead II was also recorded through the needle electrodes attached to the limbs. The heart rate and ST-segment elevation were calculated off-line. The chest was opened at the left fourth intercostal space. […] Activities of LDH and CK-MB were determined by using commercial assay kits according to manufacturer's instructions. […]

IL-6 = assay: Cardiac tissue IL-6 level by ELISA 24 h after I/R; type: in vivo, rat; conditions: 5 mg/kg
Procedure: (§2) An ischemia reperfusion injury was produced in rat heart based on Buerke's description with our modifications (Buerke et al., Proc Natl Acad Sci USA, 1995, 92:8031-8035). Sixty rats were randomly divided into six groups (n=10 per group): (I) Sham group (given saline vehicle without I/R); (II) I/R group with saline alone; (Ill) I/R group with 10 mg/kg of the caffeoylquinic acid-rich extract of example 1; (IV) I/R group with 20 mg/kg of the caffeoylquinic acid-rich extract of example 1; (V) I/R group with 40 mg/kg of the caffeoylquinic acid-rich extract of example 1; […] The vehicle or drugs were administered 1 min before reperfusion via single bolus tail vein injection. […] Using a PowerLab (ADInstruments Pty Ltd., Castle Hill, Australia), mean aortic pressure (MAP) was recorded from the Millar catheter. Electrocardiogram (ECG) in lead II was also recorded through the needle electrodes attached to the limbs. The heart rate and ST-segment elevation were calculated off-line. […] Levels of TNF-α and IL-6 were measured using ELISA kits for TNF-α (RayBiotech, Inc., Norcross Ga.) and IL-6 (R & D System). […] The contents of total protein in the supernatants were determined by using a Bio-Rad kit (Bio-Rad Laboratories, Hercules, Calif., USA). […] To determine the effect of a caffeoylquinic acid-rich extract on pro-inflammatory cytokines, cardiac tissue levels of TNF-α and IL-6 after I/R were evaluated.

[3] = system: Creatine kinase-MB (CK-MB); assay: Serum CK-MB activity 24 h after I/R (commercial kit); type: in vivo, rat; conditions: 5 mg/kg, P<0.01
Procedure: as §1

TNF-α = assay: Cardiac tissue TNF-α level by ELISA 24 h after I/R; type: in vivo, rat; conditions: 5 mg/kg
Procedure: as §2

[4] = system: myocardial I/R injury in rat heart; assay: Myocardial infarct size by TTC staining after ischemia/reperfusion; type: in vivo; conditions: 5 mg/kg i.v. tail vein 1 min before reperfusion; positive control; vehicle 15.2±1.4%
Procedure: An ischemia reperfusion injury was produced in rat heart based on Buerke's description with our modifications (Buerke et al., Proc Natl Acad Sci USA, 1995, 92:8031-8035). Sixty rats were randomly divided into six groups (n=10 per group): (I) Sham group (given saline vehicle without I/R); (II) I/R group with saline alone; (Ill) I/R group with 10 mg/kg of the caffeoylquinic acid-rich extract of example 1; (IV) I/R group with 20 mg/kg of the caffeoylquinic acid-rich extract of example 1; (V) I/R group with 40 mg/kg of the caffeoylquinic acid-rich extract of example 1; […] The vehicle or drugs were administered 1 min before reperfusion via single bolus tail vein injection. […] Using a PowerLab (ADInstruments Pty Ltd., Castle Hill, Australia), mean aortic pressure (MAP) was recorded from the Millar catheter. Electrocardiogram (ECG) in lead II was also recorded through the needle electrodes attached to the limbs. The heart rate and ST-segment elevation were calculated off-line. […] The images of the slice were captured by a LEICA digital camera 480 and infarct area in each slice was measured by computed planimetry with an image analyzing program Image J1.26 (Wayne Rasband, National Institutes of Health, USA). Then the infarct area of each slice was determined by manual delineation of TTC-negative pale area of the image. […]

## O=C(/C=C/c1ccc(O)c(O)c1)OCCc1ccccc1 [CAPE, 2-phenylethyl (2E)-3-(3,4-dihydroxyphenyl)acrylate]
JNK
  JNK phosphorylation: markedly reduced
[1]
  I/R-induced ST-segment depression: significant protective effects
  heart rate decrease after I/R: slight effect without significant difference
[2]
  serum LDH: 287±18.8 U/L
IL-6
  cardiac tissue level of IL-6: markedly decreased
[3]
  serum CK-MB: 913±40.2 U/L
TNF-α
  cardiac tissue level of TNF-α: markedly decreased
[4]
  myocardial infarct size: 7.9±0.9%
